Results reported in BigSolDB 2.1.

Clc1ccc(SSc2ccc(Cl)cc2)cc1
solubility (mole fraction) (in acetone, 302.95 K): 0.102 | solubility (mole fraction) (in acetone, 308.05 K): 0.145 | solubility (mole fraction) (in acetone, 313.25 K): 0.208 | solubility (mole fraction) (in chloroform, 303.15 K): 0.122 | solubility (mole fraction) (in chloroform, 307.95 K): 0.174 | solubility (mole fraction) (in chloroform, 312.55 K): 0.243 | solubility (mole fraction) (in ethanol, 304.35 K): 0.000264 | solubility (mole fraction) (in ethanol, 307.45 K): 0.000783 | solubility (mole fraction) (in ethanol, 312.35 K): 0.00305 | solubility (mole fraction) (in ethanol, 317.35 K): 0.00786 | solubility (mole fraction) (in ethyl acetate, 303.95 K): 0.0201 | solubility (mole fraction) (in ethyl acetate, 307.9 K): 0.038 | solubility (mole fraction) (in ethyl acetate, 312.35 K): 0.0667 | solubility (mole fraction) (in ethyl acetate, 319.05 K): 0.117 | solubility (mole fraction) (in methanol, 303.15 K): 0.00014 | solubility (mole fraction) (in methanol, 307.65 K): 0.00061 | solubility (mole fraction) (in methanol, 314.15 K): 0.00259 | solubility (mole fraction) (in methanol, 318.95 K): 0.00552 | solubility (mole fraction) (in toluene, 303.2 K): 0.0219 | solubility (mole fraction) (in toluene, 307.85 K): 0.0446 | solubility (mole fraction) (in toluene, 314.05 K): 0.0864 | solubility (mole fraction) (in toluene, 317.55 K): 0.114
